The source of these data is PubChem BioAssay (NCI).

Where “and” joins values, the source holds several entries; their conditions need not be identical. Equal entries are not always repeated.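 A five-concentration, 48-hour dose response in 96-well plates underlies each endpoint, interpolated linearly between surrounding concentrations. GI50: concentration for 50% inhibition of growth. TGI marks complete inhibition of growth.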

Common to all, as to experiment: NCI anticancer screen, dose series, 48 h
The test system of assay [1] is A498 renal.
Assay [2] has as its system COLO 205 colon.
For assay [3], the system named is DU-145 prostate.
Assay [4] deals with EKVX NSCLC.
For assay [5], the system named is HL-60(TB) leukemia.
Assay [6] relates to MDA-MB-231 breast.
For assay [7], the system named is NCI-H226 lung.
The subject of assay [8] is OVCAR-8 ovarian.
The subject of assay [9] is SN12C renal.
The subject of assay [10] is UO-31 renal.

With `CN1CCN(C2=C(Cl)C(=O)c3ccccc3C2=O)CC1`, the GI50 in assay [1] was 0.0132 µM; in assay [2] it was 1.51 µM; in assay [3] it was 1.74 µM; in assay [4], 3.05 µM; in [5], 2.39 µM; in [6], 1.84 µM. Besides, the GI50 in assay [7] is 3.31 µM; in assay [8], 1.74 µM; in [9] it was 1.61 µM; in assay [10] it was 1.22 µM. For the same molecule, the TGI was determined as 4.25 µM in assay [1]; 2.9 µM in assay [2]; 3.11 µM in [3]; 11 µM in assay [4]; 5.84 µM in assay [5]; 3.99 µM in assay [6]. For the same molecule, the TGI in assay [7] came out at 10.4 µM; in assay [8] it was 3.59 µM; in assay [9], 3.08 µM; in [10] it was 2.63 µM.
Regarding `COc1ccc(-c2cn(C)c3c2-n2cccc2C3=O)cc1O`, the GI50 was 2.82 µM in assay [1]; 17.1 µM in assay [2]; 12.5 µM in assay [3]; 14.6 µM in assay [4]; 3.48 µM in assay [5]; 3.65 µM in [6]. For the same molecule, the GI50 in assay [7] was 6.33 µM; in assay [8], 19.7 µM; in [9], 10.8 µM; in assay [10] it was 16.1 µM. Also, the TGI in [1] is 9.4 µM; in assay [2] it was 38.8 µM; in assay [3] it was 32.9 µM; in assay [4], 51.5 µM; in assay [5], over 100 µM; in assay [6], 29.8 µM. For the same molecule, the TGI in assay [7] was 39.7 µM; in [8], over 100 µM; in assay [9], 41.2 µM; in [10] it was over 100 µM.
Regarding `N[C@H]1CCC[C@@H](O)C1O` (stereo partly drawn), the TGI in assay [1], in assay [2], in assay [3], in assay [4], in assay [5] and in assay [6] was over 100 µM in each case. Besides, the TGI in assay [7], in [8], in [9] and in [10] was over 100 µM in each case.
Take `CCC/C=C/C=C/C(=O)OC1/C(=C/C(=O)OC)CC2CC(C(C)O)OC(=O)CC(O)CC3CC(OC(C)=O)C(C)(C)C(O)(CC4C/C(=C/C(=O)OC)CC(/C=C/C(C)(C)C1(O)O2)O4)O3` (stereo not drawn): the GI50 was 7.67 µM and 9.27 µM in assay [1]; over 11 µM in assay [3]; > 10.9 µM and 5.21 µM and > 12.5 µM in assay [4]; 4.61 µM and 1.81 µM and > 12.5 µM in [5]; over 12.5 µM in assay [6]; > 10.9 µM and 9.74 µM in [7]. In addition, the GI50 in assay [8] was > 10.9 µM and 7.33 µM and > 12.5 µM; in assay [9], > 10.9 µM and 7.93 µM and > 12.5 µM; in [10], > 10.9 µM and 2.48 µM and > 12.5 µM. Besides, the TGI in [1] is 10.9 µM and 11 µM and > 12.5 µM; in assay [2], 6.88 µM and 11 µM and > 12.5 µM; in [3], over 12.5 µM; in assay [4], > 10.9 µM and 9.53 µM and > 12.5 µM; in [5] it was 10.9 µM and 5.43 µM and > 12.5 µM; in assay [6], 11 µM and > 12.5 µM. In addition, the TGI in assay [7] is > 10.9 µM and 11 µM and > 12.5 µM; in assay [8], > 10.9 µM and 11 µM and > 12.5 µM; in assay [9], > 10.9 µM and 11 µM and > 12.5 µM; in assay [10], > 10.9 µM and 5.23 µM and > 12.5 µM.
On to `NC(CSC(c1ccccc1)(c1ccccc1)c1ccccc1)C(=O)O` (stereo not drawn), for which the GI50 in assay [1] was 0.493 µM; in assay [2], 3.27 µM and 1.34 µM; in assay [3], 6.02 µM and 4.1 µM; in assay [4], 3.24 µM; in assay [5], 2.54 µM and 2.11 µM; in [6], 1.08 µM. The GI50 in [7] was 22.1 µM; in assay [8], 1.93 µM and 1.05 µM; in [9] it was 2.99 µM and 0.877 µM; in [10], 9.89 µM. In addition, the TGI in assay [1] was 51.9 µM and 43 µM; in [3] it was 85.5 µM and > 100 µM; in [4], 16 µM; in [5] it was 5.93 µM and 1.53 µM and 8.62 µM; in assay [6], 4.65 µM and 6.45 µM; in assay [7], 90.1 µM and > 100 µM. Moreover, the TGI in assay [8] was 51.5 µM and 35.7 µM and > 100 µM; in [9] it was 23.8 µM and 68.3 µM and > 100 µM; in assay [10], 107 µM and > 100 µM.
`O=C1/C(=C/c2ccc(F)cc2)COc2ccc(O)c(O)c21`: the GI50 in [1] is 12.5 µM; in assay [2] it was 2.76 µM; in assay [3] it was 3.02 µM; in assay [4], 3.29 µM; in assay [5], 0.604 µM; in assay [6], 1.43 µM. The GI50 is 2.47 µM in assay [7], 2.16 µM in assay [8], 1.26 µM in [9] and 1.05 µM in [10]. The TGI in [1] worked out at 28.3 µM; in assay [2], 10.3 µM; in assay [3], 43.6 µM; in [4], 18.4 µM; in assay [5], 3.89 µM; in assay [6], 6.25 µM. In addition, the TGI in assay [7] is 7.08 µM; in [8] it was over 100 µM; in [9], 3.79 µM; in assay [10], 2.27 µM.
Turning to `CCN(Cc1cc(Cl)cc(C)c1O)Cc1c(O)ccc2ccccc12`, the TGI stood at 33.1 µM in [1]; 42 µM in assay [2]; 34.7 µM in assay [3]; 32.8 µM in [4]; 34 µM in assay [5]; 35.4 µM in assay [6]. The TGI turned out to be 41 µM in assay [7], 37.7 µM in [8], 37 µM in assay [9] and 30.4 µM in assay [10].
Regarding `Cc1cccc(CNc2c3ccccc3nc3ccccc23)c1`, the GI50 in assay [1] is 1.32 µM; in [2] it was 1.69 µM; in [3], 3.28 µM; in assay [4], 2.31 µM; in [5], 2.26 µM; in assay [6], 1.65 µM. Besides, the GI50 in [7] was 1.99 µM; in [8], 2.48 µM; in assay [9] it was 2.4 µM; in assay [10] it was 1.19 µM. The TGI was found to be 2.7 µM in assay [1]; 3.89 µM in assay [2]; 11.7 µM in assay [3]; 8.97 µM in [4]; 5.28 µM in assay [5]; 4.07 µM in assay [6]. Besides, the TGI in [7] stood at 6.02 µM; in assay [8], 9.82 µM; in assay [9], 10.1 µM; in [10], 2.62 µM.
